According to US20190185417A1, “NOVEL ANTIBIOTICS” (priority 2016, published 2019):

Tests used:
Type in all cases: cell-based
[1] = tested on: Haemophilus influenzae (ATCC 49247); test: MIC by broth microdilution; details: Table 2, Example 2
Experimental: (§1) The antibacterial potency of the test article(s) was measured using the in vitro broth microdilution assay under assay conditions described by the Clinical and Laboratory Standards Institute. […] The test substance was dissolved in 100% DMSO (unless stated below), suspended completely by sonication or vortexing, diluted by 2-fold serial titrations in the same vehicle, for a total of 11 test concentrations. A 4 μL aliquot of each dilution was added to 196 μL of broth medium seeded with the organism suspension in wells of a 96 well plate (bacterial count: 2−8×10^5 colony forming units/mL final). The final volume was 200 μL in each well and the final DMSO concentration was 2 percent. Following incubation, the test plates were visually examined and wells were scored for growth or complete growth inhibition to define the minimum inhibitory concentration. Each test substance was evaluated in duplicate and the results below are the duplicate test values. Vehicle-control and an active reference agent were used as blank and positive controls, respectively.

[2] = tested on: Staphylococcus aureus, MRSA (ATCC 33591); test: MIC by broth microdilution; details: Table 1, Example 1
Experimental: as §1, with “DMSO,” for “DMSO (unless stated below),”, “incubation for 1 day at 36° C.,” for “incubation,”, “were reported as” for “below are”, “respectively. Microorganisms tested were Acinetobacter baumannii (ATCC 17978), Enterococcus faecalis (ATCC 29212), Enterococcus faecium VanA (ATCC 700221), Escherichia coli (ATCC 25922), Escherichia coli efflux defective DEL-tolC (JW5503), Heamophilus influenzae (ATCC 49247), Klebsiella pneumoniae (ATCC 43816), Pseudomonas aeruginosa (ATCC 27853), Pseudomonas aeruginosa MDR (NTUH-974), Staphylococcus aureus (ATCC 29213), Staphylococcus aureus MRSA (ATCC 33591) and Streptococcous pneumoniae (ATCC 46919). H. influenzae was grown in Haemophilus Test Medium and S. pneumoniae was grown in cation adjusted Muller-Hinton Broth II with 5% lysed horse blood. All other microorganisms were grown in cation adjusted Muller-Hinton Broth II.” for “respectively.”

[3] = tested on: Enterococcus faecium, VanA (ATCC 700221); test: MIC by broth microdilution; details: Table 1, Example 1
Experimental: as §1, with “DMSO,” for “DMSO (unless stated below),”, “incubation for 1 day at 36° C.,” for “incubation,”, “were reported as” for “below are”, “respectively. Microorganisms tested were Acinetobacter baumannii (ATCC 17978), Enterococcus faecalis (ATCC 29212), Enterococcus faecium VanA (ATCC 700221), Escherichia coli (ATCC 25922), Escherichia coli efflux defective DEL-tolC (JW5503), Heamophilus influenzae (ATCC 49247), Klebsiella pneumoniae (ATCC 43816), Pseudomonas aeruginosa (ATCC 27853), Pseudomonas aeruginosa MDR (NTUH-974), Staphylococcus aureus (ATCC 29213), Staphylococcus aureus MRSA (ATCC 33591) and Streptococcous pneumoniae (ATCC 46919). H. influenzae was grown in Haemophilus Test Medium and S. pneumoniae was grown in cation adjusted Muller-Hinton Broth II with 5% lysed horse blood. All other microorganisms were grown in cation adjusted Muller-Hinton Broth II.” for “respectively.”

[4] = tested on: Enterococcus faecalis (ATCC29212); test: MIC by broth microdilution; details: Table 1, Example 1
Experimental: as §1, with “DMSO,” for “DMSO (unless stated below),”, “incubation for 1 day at 36° C.,” for “incubation,”, “were reported as” for “below are”, “respectively. Microorganisms tested were Acinetobacter baumannii (ATCC 17978), Enterococcus faecalis (ATCC 29212), Enterococcus faecium VanA (ATCC 700221), Escherichia coli (ATCC 25922), Escherichia coli efflux defective DEL-tolC (JW5503), Heamophilus influenzae (ATCC 49247), Klebsiella pneumoniae (ATCC 43816), Pseudomonas aeruginosa (ATCC 27853), Pseudomonas aeruginosa MDR (NTUH-974), Staphylococcus aureus (ATCC 29213), Staphylococcus aureus MRSA (ATCC 33591) and Streptococcous pneumoniae (ATCC 46919). H. influenzae was grown in Haemophilus Test Medium and S. pneumoniae was grown in cation adjusted Muller-Hinton Broth II with 5% lysed horse blood. All other microorganisms were grown in cation adjusted Muller-Hinton Broth II.” for “respectively.”

[5] = tested on: Staphylococcus aureus (ATCC 29213); test: MIC by broth microdilution; details: Table 1, Example 1
Experimental: as §1, with “DMSO,” for “DMSO (unless stated below),”, “incubation for 1 day at 36° C.,” for “incubation,”, “were reported as” for “below are”, “respectively. Microorganisms tested were Acinetobacter baumannii (ATCC 17978), Enterococcus faecalis (ATCC 29212), Enterococcus faecium VanA (ATCC 700221), Escherichia coli (ATCC 25922), Escherichia coli efflux defective DEL-tolC (JW5503), Heamophilus influenzae (ATCC 49247), Klebsiella pneumoniae (ATCC 43816), Pseudomonas aeruginosa (ATCC 27853), Pseudomonas aeruginosa MDR (NTUH-974), Staphylococcus aureus (ATCC 29213), Staphylococcus aureus MRSA (ATCC 33591) and Streptococcous pneumoniae (ATCC 46919). H. influenzae was grown in Haemophilus Test Medium and S. pneumoniae was grown in cation adjusted Muller-Hinton Broth II with 5% lysed horse blood. All other microorganisms were grown in cation adjusted Muller-Hinton Broth II.” for “respectively.”

[6] = tested on: Pseudomonas aeruginosa, MDR (NTUH-974); test: MIC by broth microdilution; details: Table 2, Example 2
Experimental: as §1, with “DMSO,” for “DMSO (unless stated below),”, “incubation for 1 day at 36° C.,” for “incubation,”, “were reported as” for “below are”, “respectively. Microorganisms tested were Acinetobacter baumannii (ATCC 17978), Enterococcus faecalis (ATCC 29212), Enterococcus faecium VanA (ATCC 700221), Escherichia coli (ATCC 25922), Escherichia coli efflux defective DEL-tolC (JW5503), Heamophilus influenzae (ATCC 49247), Klebsiella pneumoniae (ATCC 43816), Pseudomonas aeruginosa (ATCC 27853), Pseudomonas aeruginosa MDR (NTUH-974), Staphylococcus aureus (ATCC 29213), Staphylococcus aureus MRSA (ATCC 33591) and Streptococcous pneumoniae (ATCC 46919). H. influenzae was grown in Haemophilus Test Medium and S. pneumoniae was grown in cation adjusted Muller-Hinton Broth II with 5% lysed horse blood. All other microorganisms were grown in cation adjusted Muller-Hinton Broth II.” for “respectively.”
as §1

[7] = tested on: Pseudomonas aeruginosa (ATCC 27853); test: MIC by broth microdilution
Experimental: as §1, with “DMSO,” for “DMSO (unless stated below),”, “incubation for 1 day at 36° C.,” for “incubation,”, “were reported as” for “below are”, “respectively. Microorganisms tested were Acinetobacter baumannii (ATCC 17978), Enterococcus faecalis (ATCC 29212), Enterococcus faecium VanA (ATCC 700221), Escherichia coli (ATCC 25922), Escherichia coli efflux defective DEL-tolC (JW5503), Heamophilus influenzae (ATCC 49247), Klebsiella pneumoniae (ATCC 43816), Pseudomonas aeruginosa (ATCC 27853), Pseudomonas aeruginosa MDR (NTUH-974), Staphylococcus aureus (ATCC 29213), Staphylococcus aureus MRSA (ATCC 33591) and Streptococcous pneumoniae (ATCC 46919). H. influenzae was grown in Haemophilus Test Medium and S. pneumoniae was grown in cation adjusted Muller-Hinton Broth II with 5% lysed horse blood. All other microorganisms were grown in cation adjusted Muller-Hinton Broth II.” for “respectively.”
as §1

[8] = tested on: Klebsiella pneumoniae (ATCC 43816); test: MIC by broth microdilution
Experimental: as §1, with “DMSO,” for “DMSO (unless stated below),”, “incubation for 1 day at 36° C.,” for “incubation,”, “were reported as” for “below are”, “respectively. Microorganisms tested were Acinetobacter baumannii (ATCC 17978), Enterococcus faecalis (ATCC 29212), Enterococcus faecium VanA (ATCC 700221), Escherichia coli (ATCC 25922), Escherichia coli efflux defective DEL-tolC (JW5503), Heamophilus influenzae (ATCC 49247), Klebsiella pneumoniae (ATCC 43816), Pseudomonas aeruginosa (ATCC 27853), Pseudomonas aeruginosa MDR (NTUH-974), Staphylococcus aureus (ATCC 29213), Staphylococcus aureus MRSA (ATCC 33591) and Streptococcous pneumoniae (ATCC 46919). H. influenzae was grown in Haemophilus Test Medium and S. pneumoniae was grown in cation adjusted Muller-Hinton Broth II with 5% lysed horse blood. All other microorganisms were grown in cation adjusted Muller-Hinton Broth II.” for “respectively.”
as §1

[9] = tested on: Escherichia coli (ATCC 25922); test: MIC by broth microdilution
Experimental: as §1, with “DMSO,” for “DMSO (unless stated below),”, “incubation for 1 day at 36° C.,” for “incubation,”, “were reported as” for “below are”, “respectively. Microorganisms tested were Acinetobacter baumannii (ATCC 17978), Enterococcus faecalis (ATCC 29212), Enterococcus faecium VanA (ATCC 700221), Escherichia coli (ATCC 25922), Escherichia coli efflux defective DEL-tolC (JW5503), Heamophilus influenzae (ATCC 49247), Klebsiella pneumoniae (ATCC 43816), Pseudomonas aeruginosa (ATCC 27853), Pseudomonas aeruginosa MDR (NTUH-974), Staphylococcus aureus (ATCC 29213), Staphylococcus aureus MRSA (ATCC 33591) and Streptococcous pneumoniae (ATCC 46919). H. influenzae was grown in Haemophilus Test Medium and S. pneumoniae was grown in cation adjusted Muller-Hinton Broth II with 5% lysed horse blood. All other microorganisms were grown in cation adjusted Muller-Hinton Broth II.” for “respectively.”
as §1

[10] = tested on: Acinetobacter baumannii (ATCC 17978); test: MIC by broth microdilution
Experimental: as §1, with “DMSO,” for “DMSO (unless stated below),”, “incubation for 1 day at 36° C.,” for “incubation,”, “were reported as” for “below are”, “respectively. Microorganisms tested were Acinetobacter baumannii (ATCC 17978), Enterococcus faecalis (ATCC 29212), Enterococcus faecium VanA (ATCC 700221), Escherichia coli (ATCC 25922), Escherichia coli efflux defective DEL-tolC (JW5503), Heamophilus influenzae (ATCC 49247), Klebsiella pneumoniae (ATCC 43816), Pseudomonas aeruginosa (ATCC 27853), Pseudomonas aeruginosa MDR (NTUH-974), Staphylococcus aureus (ATCC 29213), Staphylococcus aureus MRSA (ATCC 33591) and Streptococcous pneumoniae (ATCC 46919). H. influenzae was grown in Haemophilus Test Medium and S. pneumoniae was grown in cation adjusted Muller-Hinton Broth II with 5% lysed horse blood. All other microorganisms were grown in cation adjusted Muller-Hinton Broth II.” for “respectively.”
as §1

[11] = tested on: Escherichia coli, efflux defective DEL-tolC (JW5503); test: MIC by broth microdilution
Experimental: as §1, with “DMSO,” for “DMSO (unless stated below),”, “incubation for 1 day at 36° C.,” for “incubation,”, “were reported as” for “below are”, “respectively. Microorganisms tested were Acinetobacter baumannii (ATCC 17978), Enterococcus faecalis (ATCC 29212), Enterococcus faecium VanA (ATCC 700221), Escherichia coli (ATCC 25922), Escherichia coli efflux defective DEL-tolC (JW5503), Heamophilus influenzae (ATCC 49247), Klebsiella pneumoniae (ATCC 43816), Pseudomonas aeruginosa (ATCC 27853), Pseudomonas aeruginosa MDR (NTUH-974), Staphylococcus aureus (ATCC 29213), Staphylococcus aureus MRSA (ATCC 33591) and Streptococcous pneumoniae (ATCC 46919). H. influenzae was grown in Haemophilus Test Medium and S. pneumoniae was grown in cation adjusted Muller-Hinton Broth II with 5% lysed horse blood. All other microorganisms were grown in cation adjusted Muller-Hinton Broth II.” for “respectively.”
as §1

[12] = tested on: Gram-negative bacteria; test: MIC by broth microdilution, overall statement in words; details: Example 1, statement in words
Experimental: as §1, with “DMSO,” for “DMSO (unless stated below),”, “incubation for 1 day at 36° C.,” for “incubation,”, “were reported as” for “below are”, “respectively. Microorganisms tested were Acinetobacter baumannii (ATCC 17978), Enterococcus faecalis (ATCC 29212), Enterococcus faecium VanA (ATCC 700221), Escherichia coli (ATCC 25922), Escherichia coli efflux defective DEL-tolC (JW5503), Heamophilus influenzae (ATCC 49247), Klebsiella pneumoniae (ATCC 43816), Pseudomonas aeruginosa (ATCC 27853), Pseudomonas aeruginosa MDR (NTUH-974), Staphylococcus aureus (ATCC 29213), Staphylococcus aureus MRSA (ATCC 33591) and Streptococcous pneumoniae (ATCC 46919). H. influenzae was grown in Haemophilus Test Medium and S. pneumoniae was grown in cation adjusted Muller-Hinton Broth II with 5% lysed horse blood. All other microorganisms were grown in cation adjusted Muller-Hinton Broth II.” for “respectively.”
as §1

C[N+](C)(C)Cc1ccc(/C=C/c2cc(/C=C/c3ccc(C[N+](C)(C)C)cc3)cc(/C=C/c3ccc(C[N+](C)(C)C)cc3)c2)cc1.[I-].[I-].[I-] [Compound 1]
64 µg/mL: MIC ([9]; Table 1, Example 1) | MIC ([9]; Table 2, Example 2)
128 µg/mL: MIC [3] | MIC [4] | MIC ([8]; Table 1, Example 1) | MIC ([8]; Table 2, Example 2) | MIC ([10]; Table 1, Example 1) | MIC ([10]; Table 2, Example 2)
>128 µg/mL: MIC [1] | MIC [6] | MIC ([7]; Table 2, Example 2)
active: activity against Gram-negative bacteria [12]
32 µg/mL: MIC [5] | MIC ([11]; Table 1, Example 1) | MIC ([11]; Table 2, Example 2)
16 µg/mL: MIC [2]
> 256 µg/mL: MIC ([7]; Table 1, Example 1)

Nc1ccc(CCc2cc(CCc3ccc(N)cc3)cc(CCc3ccc(N)cc3)c2)cc1 [Compound 2 (TSB014)]
>32.0 µg/mL: MIC [1] | MIC [6] | MIC ([7]; Table 2, Example 2) | MIC ([8]; Table 2, Example 2) | MIC ([9]; Table 2, Example 2) | MIC ([10]; Table 2, Example 2) | MIC ([11]; Table 2, Example 2)

N#Cc1ccc(/C=C/c2cc(/C=C/c3ccc(C#N)cc3)cc(/C=C/c3ccc(C#N)cc3)c2)cc1 [Compound 3]
>128 µg/mL: MIC [1] | MIC [6] | MIC ([7]; Table 2, Example 2) | MIC ([8]; Table 2, Example 2) | MIC ([9]; Table 2, Example 2) | MIC ([10]; Table 2, Example 2) | MIC ([11]; Table 2, Example 2)
